Experimental data taken from patent US8652505B2, “Coating for medical implants” (Southwest Research Institute, priority 2010, dated 2014).

System: methicillin resistant Staphylococcus aureus (MRSA) bacteria (strain: ATCC#33591)
Test: Bacteria inhibition test on Mueller-Hinton agar (zone of inhibition / MIC)
Format: cell-based
Description: Bacteria inhibition tests were performed on Agar according to the standard method by using methicillin resistant Staphylococcus aureus (MRSA) bacteria (strain: ATCC#33591) in order to determine if the released vancomycin was active and unaffected by the coating and polymerization procedures described herein. The bacteria suspensions were cultured onto separate Mueller-Hinton agar plates at a concentration of 1−2×10^8 CFU/mL (CFU=colony forming unites) and incubated at 37° C. Released vancomycin, free vancomycin, and a standard vancomycin disk (loaded with 30 μg of vancomycin) were compared. After 24 hrs, the zone of inhibition was measured. To measure the sensitivity or the minimum inhibition concentration (MIC), different concentrations of vancomycin were loaded onto cellulose discs (40, 20, 10, 5, 2.5, and 1.25 μg per disc, N=3) and the zone of inhibition was measured.

| SMILES | activity of released drug in bacteria inhibition test (zone of inhibition after 24 hrs, 37° C., compared with free vancomycin and standard 30 μg disk) | MIC (vancomycin loaded on cellulose discs, against S. Aureus, FIG. 10) [µg] |
| --- | --- | --- |
| CN[C@H](CC(C)C)C(=O)N[C@H]1C(=O)N[C@@H](CC(N)=O)C(=O)N[C@H]2C(=O)N[C@H]3C(=O)N[C@H](C(=O)N[C@H](C(=O)O)c4cc(O)cc(O)c4-c4cc3ccc4O)[C@H](O)c3ccc(c(Cl)c3)Oc3cc2cc(c3O[C@@H]2O[C@H](CO)[C@@H](O)[C@H](O)[C@H]2O[C@H]2C[C@](C)(N)[C@H](O)[C@H](C)O2)Oc2ccc(cc2Cl)[C@H]1O [released drug, vancomycin] | same activity as the free drug and standard drug |  |
| CN[C@H](CC(C)C)C(=O)N[C@H]1C(=O)N[C@@H](CC(N)=O)C(=O)N[C@H]2C(=O)N[C@H]3C(=O)N[C@H](C(=O)N[C@H](C(=O)O)c4cc(O)cc(O)c4-c4cc3ccc4O)[C@H](O)c3ccc(c(Cl)c3)Oc3cc2cc(c3O[C@@H]2O[C@H](CO)[C@@H](O)[C@H](O)[C@H]2O[C@H]2C[C@](C)(N)[C@H](O)[C@H](C)O2)Oc2ccc(cc2Cl)[C@H]1O [vancomycin] |  | 0.5 to 1 |
